Patent publication US7700088B2, “Interleukin-9 mutein peptides” (Genaera Corporation, priority 1995, dated 2010)
Entries after “also recorded” stand apart in the source; their conditions may differ. Blank lines part the entries; values can stand above or below the molecule they belong to.

Columns and labels:
[1] = system: IL-9 mediated MO7e proliferation; assay: Inhibition of IL-9 mediated MO7e proliferation (acid phosphatase cell proliferation assay); assay type: cell-based, human; conditions: for inhibition of cellular growth induced by IL-9: tyrophostins incubated with MO7e cells, compared with control (no treatment); for inhibition of cellular growth induced by IL-9 (antagonism of IL-9): peptides incubated with MO7e cells, compared with control (no peptide)
Method: Cell lines were used to assess the function of peptides, aminosterols, tyrophostins, rhIL-9, rmIL-9, and recombinant mutant forms of these proteins as well as all other compounds that block IL-9 function. A proliferative response was measured and compared to each of the other cytokines, variant or mutant forms of Il-9, or IL-9 antagonists. In addition, compounds were tested for their ability to antagonize the baseline proliferative response. Once a baseline proliferative response was established for a cytokine a statistically significant loss of response in assays repeated three times in triplicate was considered evidence for antagonism. A true antagonistic response was differentiated from cellular toxicity by direct observation, trypan blue staining (a technique well known to one of normal skill in the art), and loss of acid phosphatase activity. Specificity was assessed for the antagonist by evaluating whether the activity was substantially expressed against other proliferative agents such as steel factor, interleukin 3, or interleukin 4.
The MO7e line is a human megakaryoblastic cell line, cultured in RPMI 1640 (GIBCO/BRL, Gaithersburg, Md.), 20% Fetal Bovine Serum (Hyclone) and 10 ng/ml IL-3 (R&D Systems, Minneapolis, Minn.). The MJ line is a cytokine independent human lymphoblastoid cell line grown in RPMI 1640 (GIBCO/BRL) K562 is a human erthroleukemia cell line, cultured in RPMI 1640 (GIBCO/BRL) and 10% fetal bovine serum (Hyclone). C8166-45 is a IL-9 receptor bearing line, cultured in RPMI 1640 GIBCO/BRL) and 10% Fetal bovine serum (Hyclone). All the cell lines respond to cytokines including IL-9. The cell lines are fed and reseeded at 2×10^5 cells/ml every 72 hours.
The cells were centrifuged for 10 minutes at 2000 rpm and resuspended in RPMI 1640 with 0.5% Bovine Serum Albumin (GIBCO/BRL, Gaithersburg, Md.) and insulin-transferrin-selenium (ITS) cofactors (GIBCO/BRL, Gaithersburg, Md.). Cells were counted using a hemocytometer and diluted to a concentration of 1×10^5 cells/ml and plated in a 96-well microtiter plate. Each well contained 0.15 or 0.2 ml giving a final concentration of 2×10^4 cells per well.
MO7e cells were stimulated with 50 ng/ml Stem Cell Factor (SCF) (R&D Systems, Minneapolis, Minn.) alone, 50 ng/ml SCF plus 50 ng/ml IL-3 (R&D Systems, Minneapolis, Minn.), or 50 ng/ml SCF plus 50 ng/ml IL-9. A control was included which contains cells and basal media only. Serial dilutions of test compounds (i.e., recombinant IL-9 proteins, peptides, small molecules) were added to each test condition in triplicate. The MJ cell line was used as an independent control for nonspecific cytotoxicity. Cultures were incubated for 72-96 hours at 37° C. in 5% CO2.
Cell proliferation was assayed using the Abacus Cell Proliferation Kit (Clontech, Palo Alto, Calif.) which determines the amount of intracellular acid phosphatase present as an indication of cell number. The substrate p-nitrophenyl phosphate (pNPP) was converted by acid phosphatase to p-nitrophenol which was measured as an indicator of enzyme concentration. pNPP was added to each well and incubated at 37° C. for one hour. 1N sodium hydroxide was then added to stop the enzymatic reaction, and the amount of p-nitrophenol was quantified using a Dynatech 2000 plate reader (Dynatech Laboratories, Chantilly, Va.) at 410 nm wavelength. Standard curves that compare cell number with optical absorbance were used to determine the linear range of the assay. Assay results were only used when absorbance measurements are within the linear range of the assay.

Soluble IL-9 receptor = molecular target: T1, Soluble IL-9 receptor (Homo sapiens, UniProt Q01113); assay: Binding of recombinant IL-9 forms to soluble IL-9 receptor (anti-FLAG immunoprecipitation, Western blot); conditions: 0.5 micrograms soluble receptor (amino acids 44 to 270), PBS, room temperature, 30 minutes
T1 construct: Soluble IL-9 receptor including amino acids 44 to 270 (R&D Systems); purchased R&D Systems
T1 sequence (Q01113 44-270): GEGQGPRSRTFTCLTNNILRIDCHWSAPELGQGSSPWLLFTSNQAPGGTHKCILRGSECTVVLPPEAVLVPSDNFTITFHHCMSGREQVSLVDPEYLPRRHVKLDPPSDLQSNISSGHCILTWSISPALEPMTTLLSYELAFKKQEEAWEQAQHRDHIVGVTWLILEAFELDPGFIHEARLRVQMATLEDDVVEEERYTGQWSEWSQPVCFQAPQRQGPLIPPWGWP
Method: Soluble IL-9 receptor including amino acids 44 to 270 (R&D Systems) was incubated with different forms of human recombinant IL-9. Varying amounts of FlagMet117 and FlagThr117 (described in Example 7) were incubated in PBS at room temperature for 30 minutes with 0.5 micrograms of soluble receptor. EBC buffer (50 mM Tris pH 7.5; 0.1 M NaCl; 0.5% NP40) was added (300 microliters) was added along with 1 microgram of anti-FLAG monoclonal antibody (IBI) and incubated for 1 hour on ice. Forty microliters of protein A sepharose solution was added to each sample and mixed for 1 hour at 4° C. Samples were centrifuged for 1 minute 11,000×G and pellets were washed 4 times with 500 microliters of EBC. Pellets were dissolved in 26 microliters of 2×SDS buffer, boiled for 4 minutes, and electrophoresed through an 18% SDS polyacrylamide gel. Western blots were performed as described in Example 15 except the blots were probed with an anti-IL-9 receptor antibody (R&D Systems).

Molecule: N#C/C(=C\c1ccc(O)c(O)c1)C(=O)NCCCCc1ccccc1 [Tyrophostin B56, reference compound]
inhibition of cellular growth induced by IL-9 [1]: greatest inhibition

Molecule: N#C/C(=C\c1ccc(O)c(O)c1)C(=O)NCCCc1ccccc1 [Tyrophostin B46, reference compound]
inhibition of cellular growth induced by IL-9 [1]: greatest inhibition

Molecule: KP-23: peptide derived from IL-9 exon 5, SEQ ID NO: 15, spanning the codon 117 polymorphism (EQPANQTTAGNALTFLKS)
inhibition of cellular growth induced by IL-9 (antagonism of IL-9) [1]: antagonistic properties

binding to soluble IL-9 receptor (Soluble IL-9 receptor): bound to the soluble receptor
Molecule: IL-9 FlagMet117: purified recombinant human FLAG IL-9 fusion protein with methionine at position 117

Molecule: KP-16: antagonistic peptide derived from IL-9 exon 4, IL-9 residues 43-60, SEQ. ID NO: 13 (SDNATRPAFSERLSQMTN)
inhibition of cellular growth induced by IL-9 (antagonism of IL-9) [1]: considerable inhibitory activity; also recorded: act as IL-9 antagonists

Molecule: KP-20: antagonistic peptide derived from IL-9 exon 4, IL-9 residues 71-90, SEQ. ID NO: 14 (FSRVKKSVEVLKNNKAPY)
inhibition of cellular growth induced by IL-9 (antagonism of IL-9) [1]: considerable inhibitory activity; also recorded: act as IL-9 antagonists

Molecule: KP-24: peptide derived from IL-9 exon 5, SEQ ID NO: 16, spanning the codon 117 polymorphism (TAGNALTFLKSLLEIFQK; Residues 99-116 of Mature hIL-9 Receptor)
inhibition of cellular growth induced by IL-9 (antagonism of IL-9) [1]: antagonistic properties
